# In ChEMBL document CHEMBL1201862, “PubChem BioAssay data set” (2004):
#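 Test compounds were applied to cells in 96-well plates for 48 hours at 5 doses. Abbreviation: GI50, concentration required for 50% inhibition of growth.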 Calls of active or inactive are those of the source. Rule as the data show it: active = GI50 up to about 1.1 µM and inactive = higher.
# Tests used:
# Assay in all cases: NCI anticancer screen, dose series, 48 h
# M14 = test system: M14
# T47D = test system: T47D
# SK-MEL-28 = test system: SK-MEL-28
# NCI-H226 = test system: NCI-H226
# UACC-62 = test system: UACC-62
# MDA-MB-231 = test system: MDA-MB-231
# PC-3 = test system: PC-3
# RXF 393 = test system: RXF 393
# DU-145 = test system: DU-145
# SK-MEL-2 = test system: SK-MEL-2
# OVCAR-8 = test system: OVCAR-8
# NCI-H23 = test system: NCI-H23
# 786-0 = test system: 786-0
# HT-29 = test system: HT-29
# HCC 2998 = test system: HCC 2998
# UO-31 = test system: UO-31
# SF-295 = test system: SF-295
# HL-60 = test system: HL-60
# HCT-15 = test system: HCT-15
# OVCAR-3 = test system: OVCAR-3
SMILES,GI50 (M14),GI50 (T47D),GI50 (SK-MEL-28),GI50 (NCI-H226),GI50 (UACC-62),GI50 (MDA-MB-231),GI50 (PC-3),GI50 (RXF 393),GI50 (DU-145),GI50 (SK-MEL-2),GI50 (OVCAR-8),GI50 (NCI-H23),GI50 (786-0),GI50 (HT-29),GI50 (HCC 2998),GI50 (UO-31),GI50 (SF-295),GI50 (HL-60),GI50 (HCT-15),GI50 (OVCAR-3)
COC(=O)Nc1nc2cc(C(=O)c3ccc[nH]3)ccc2[nH]1,0.571 µM (active),0.959 µM (active),0.711 µM (active),1.16 µM (inactive),0.425 µM (active),20.6 µM (inactive),0.348 µM (active),0.0895 µM (active),1.82 µM (inactive),0.353 µM (active),3.18 µM (inactive),6.87 µM (inactive),1.69 µM (inactive),0.415 µM (active),2.55 µM (inactive),1.21 µM (inactive),0.759 µM (active),0.0689 µM (active),0.319 µM,
O=C(c1cc2ccccc2cc1O)N1CCCCC1,18.1 µM (inactive),37.6 µM (inactive),41.8 µM (inactive),17.8 µM (inactive),31.4 µM (inactive),68.2 µM (inactive),29.8 µM (inactive),51.1 µM (inactive),64.1 µM (inactive),17.3 µM (inactive),20.8 µM (inactive),,59.4 µM (inactive),25.6 µM (inactive),21.2 µM (inactive),40.5 µM (inactive),25.4 µM (inactive),20.4 µM (inactive),35.8 µM,
Cc1cc2c(cc1C)OC(=O)CC2,> 100 µM (inactive),> 100 µM (inactive),> 100 µM (inactive),> 100 µM (inactive),> 100 µM (inactive),> 100 µM (inactive),> 100 µM (inactive),> 100 µM (inactive),> 100 µM (inactive),> 100 µM (inactive),> 100 µM (inactive),> 100 µM (inactive),> 100 µM (inactive),> 100 µM (inactive),> 100 µM (inactive),> 100 µM (inactive),> 100 µM (inactive),> 100 µM (inactive),,> 100 µM (inactive)
O=C1C=CC(=O)c2c1cc([N+](=O)[O-])c1ccoc21,6.17 µM (inactive),2.8 µM (inactive),20.1 µM (inactive),26.6 µM (inactive),15.8 µM (inactive),21.3 µM (inactive),15.6 µM (inactive),1.97 µM (inactive),9.06 µM (inactive),18.4 µM (inactive),26.2 µM (inactive),22.6 µM (inactive),1.77 µM (inactive),17.3 µM (inactive),19.5 µM (inactive),3.01 µM (inactive),19.1 µM (inactive),0.743 µM (active),23.3 µM,11.5 µM (inactive)
c1ccc(CSc2nnc3c4ccccc4c4ccccc4c3n2)cc1,> 100 µM (inactive),34.1 µM (inactive),> 100 µM (inactive),45.6 µM (inactive),46 µM (inactive),35.2 µM (inactive),64.9 µM (inactive),> 52.1 µM (inactive),> 82.2 µM (inactive),36.6 µM (inactive),35.5 µM (inactive),48.2 µM (inactive),34.8 µM (inactive),> 100 µM (inactive),51.1 µM (inactive),> 57.7 µM (inactive),23.2 µM (inactive),> 36.2 µM (inactive),> 100 µM,21.7 µM (inactive)
O=C(SC1=NCCN1)c1cccc2ccccc12,67.6 µM (inactive),44.9 µM (inactive),96.2 µM (inactive),32.3 µM (inactive),> 100 µM (inactive),> 100 µM (inactive),42 µM (inactive),53.7 µM (inactive),67.5 µM (inactive),> 100 µM (inactive),71.9 µM (inactive),63.5 µM (inactive),67.5 µM (inactive),38.6 µM (inactive),> 100 µM (inactive),42.9 µM (inactive),36.8 µM (inactive),23.8 µM (inactive),48.6 µM,56.9 µM (inactive)
N#Cc1c(C#N)c(-c2cccc([N+](=O)[O-])c2)n(-c2ccccc2)c1N,> 100 µM (inactive),> 100 µM (inactive),,18 µM (inactive),66.1 µM (inactive),38.7 µM (inactive),> 100 µM (inactive),41.7 µM (inactive),> 100 µM (inactive),> 100 µM (inactive),99.3 µM (inactive),> 100 µM (inactive),51.5 µM (inactive),> 100 µM (inactive),> 100 µM (inactive),> 100 µM (inactive),63.2 µM (inactive),> 100 µM (inactive),> 100 µM,> 100 µM (inactive)
Cc1nc2c(cc1C(=O)N/N=C/c1ccc([N+](=O)[O-])cc1)c(=O)n(C)c(=O)n2C,> 100 µM (inactive),80.4 µM (inactive),> 100 µM (inactive),80.2 µM (inactive),> 100 µM (inactive),22.1 µM (inactive),> 100 µM (inactive),18.6 µM (inactive),94.6 µM (inactive),31.8 µM (inactive),32.4 µM (inactive),41.8 µM (inactive),26.5 µM (inactive),> 100 µM (inactive),> 100 µM (inactive),> 100 µM (inactive),54.1 µM (inactive),> 100 µM (inactive),> 100 µM,> 100 µM (inactive)
COc1ccc(CCNC(=O)Cc2ccccc2CCO)cc1OC,> 100 µM (inactive),> 100 µM (inactive),52.7 µM (inactive),> 100 µM (inactive),> 100 µM (inactive),38.8 µM (inactive),> 100 µM (inactive),> 100 µM (inactive),> 100 µM (inactive),> 100 µM (inactive),> 100 µM (inactive),> 100 µM (inactive),> 100 µM (inactive),> 100 µM (inactive),> 100 µM (inactive),> 100 µM (inactive),> 100 µM (inactive),> 100 µM (inactive),14.9 µM,> 100 µM (inactive)
O=C1/C(=C/c2ccc3c(c2)OCO3)CCC1CN1CCOCC1 (configuration not stated),4.22 µM (inactive),3.98 µM (inactive),3.4 µM (inactive),16.7 µM (inactive),9.16 µM (inactive),3.36 µM (inactive),2.17 µM (inactive),11.4 µM (inactive),16 µM (inactive),12 µM (inactive),7.64 µM (inactive),8.83 µM (inactive),5.42 µM (inactive),5.77 µM (inactive),8.75 µM (inactive),15.8 µM (inactive),18.2 µM (inactive),1.44 µM (inactive),2.94 µM,7.93 µM (inactive)
Cc1cn(CCCCOC(=O)NC(CCCNC(N)=O)C(=O)O)c(=O)[nH]c1=O (configuration not stated),> 100 µM (inactive),> 100 µM (inactive),> 100 µM (inactive),> 100 µM (inactive),> 100 µM (inactive),> 100 µM (inactive),> 100 µM (inactive),> 100 µM (inactive),> 100 µM (inactive),> 100 µM (inactive),> 100 µM (inactive),> 100 µM (inactive),> 100 µM (inactive),> 100 µM (inactive),> 100 µM (inactive),> 100 µM (inactive),> 100 µM (inactive),> 100 µM (inactive),> 100 µM,> 100 µM (inactive)
CCOC(=O)N1CCN(c2ccc3c(C)cc(C)nc3n2)CC1,> 100 µM (inactive),> 100 µM (inactive),> 100 µM (inactive),> 100 µM (inactive),> 100 µM (inactive),> 100 µM (inactive),> 100 µM (inactive),> 100 µM (inactive),> 100 µM (inactive),> 100 µM (inactive),> 100 µM (inactive),> 100 µM (inactive),> 100 µM (inactive),> 100 µM (inactive),> 100 µM (inactive),> 100 µM (inactive),> 100 µM (inactive),> 100 µM (inactive),> 100 µM,> 100 µM (inactive)
CC(=O)OC1CCN(C(=O)c2ccccc2)CC1CC1(c2cc3ccccc3[nH]2)OCCO1 (configuration not stated),83.8 µM (inactive),34 µM (inactive),> 100 µM (inactive),> 100 µM (inactive),36.6 µM (inactive),> 100 µM (inactive),34.9 µM (inactive),> 100 µM (inactive),> 100 µM (inactive),> 100 µM (inactive),73.1 µM (inactive),69.2 µM (inactive),> 100 µM (inactive),> 100 µM (inactive),47.3 µM (inactive),29 µM (inactive),68.5 µM (inactive),24.2 µM (inactive),48.3 µM,53.1 µM (inactive)
CCN1CCN(c2nc3ccc([N+](=O)[O-])cc3nc2C(=O)c2ccccc2)CC1,12.4 µM (inactive),26.7 µM (inactive),,11.8 µM (inactive),16.9 µM (inactive),14.6 µM (inactive),17.3 µM (inactive),16.7 µM (inactive),18.8 µM (inactive),15.8 µM (inactive),16.8 µM (inactive),17.2 µM (inactive),18.7 µM (inactive),,15.3 µM (inactive),12.6 µM (inactive),16.7 µM (inactive),26.2 µM (inactive),12 µM,16.8 µM (inactive)
Cc1nc(-c2ccc(Cl)cc2)cn2c1nc1ccccc12,> 72.3 µM (inactive),0.955 µM (active),> 100 µM (inactive),> 100 µM (inactive),> 100 µM (inactive),> 100 µM (inactive),> 100 µM (inactive),> 100 µM (inactive),> 100 µM (inactive),> 100 µM (inactive),> 100 µM (inactive),> 100 µM (inactive),> 100 µM (inactive),99.1 µM (inactive),> 100 µM (inactive),,> 100 µM (inactive),> 31.6 µM (inactive),19.4 µM,> 100 µM (inactive)
